Test results taken from patent US7129265B2, “Synergistic effects of amlodipine and atorvastatin metabolite as a basis for combination therapy” (priority 1999, dated 2006).

Legend:
human LDL = assay: LDL oxidation determination (copper-induced, TBARS formation); assay type: biochemical; conditions: 3.0 μM; 4 h incubation; copper 10.0 μM
Protocol: The ability of these agents to inhibit LDL peroxidation was assessed in vitro following addition of copper (10.0 μM) by measuring the levels of thiobarbituric reactive substances (TBARS), a marker of lipid peroxidation. […] The EDTA content of the LDL samples obtained from human plasma was removed by gel filtration with PD-10 Sephadex […] filtration columns; PBS (nitrogen purged) was used as the eluent. The LDL samples (50 μg of protein/mL) were then preincubated with or without drug (3.0 μM) for 30 mm at 37° C. Oxidation of LDL was then induced by the addition of 10.0 μM CuSO4. The time course of LDL oxidation, measured by TBARS formation, was followed for 6 h at 37° C. ([…]. Potentiation of free radical-induced lipid peroxidative injury to sarcolemmal membranes by lipid amphiphiles. J. Biol. Chem. 1986; 261:1153-1157). […] The protein content of the LDL was determined using the Coomassie Protein Plus assay kit from Pierce Chemical. A rapid and sensitive method for the quantitation of microgram quantities of protein utilizing the principle of protein-dye binding. Anal. Biochem. 1976; 72:248-254).

[1] = Small angle X-ray diffraction analysis of membrane bilayer structure; assay type: physicochemical; conditions: drug to phospholipid 1:15; for overall membrane bilayer width, including surface hydration: without drug 55.5 Å
Protocol: The lipids (1-palmitoyl-2-oleoyl phosphatidylcholine and cholesterol) used for these samples were dissolved in HPLC-grade chloroform (10.0 mg/ml). Membrane vesicles were produced from these lipids by the same method as described for the peroxidation experiments. The final phospholipid concentration was 5.0 mg/ml buffer and the mole ratio of drug to phospholipid was 1:15. Membrane samples were oriented for diffraction analysis by subjecting them to centrifugation as previously described (Chester D W, Herbette L G, Mason R P, Joslyn A F, Triggle D J, Koppel D E. Diffusion of dihydropyridine calcium channel antagonists in cardiac sarcolemmal lipid multibilayers. Biophys. J. 1987; 52:1021–1030). Briefly, vesicles were placed in sedimentation cells that contained an aluminum foil substrate. The vesicles were sedimented in an SW-28 rotor (Beckman Instruments Fullerton, Calif.) at 35,000×g for 1.5 h at 5° C. Following centrifugation, the supernatant was removed from the pellets and the samples were then mounted on to curved glass supports. Samples were placed in sealed canisters to control relative humidity and temperature during the diffraction experiments, as previously described in detail (Chester D W, Herbette L G, Mason R P, Joslyn A F, Triggle D J, Koppel D E. Diffusion of dihydropyridine calcium channel antagonists in cardiac sarcolemmal lipid multibilayers. Biophys. J. 1987; 52: 1021–1030).
X-ray diffraction experiments were conducted by aligning the samples at grazing incidence with respect to a collimated, nickel-filtered monochromatic X-ray source (CuKα1.54 Å) produced by a high-brilliance rotating anode microfocus generator (Rigaku Rotaflex RU-200, Danvers, Mass.). The fixed geometry beam line consisted of a single, nickel-coated Franks mirror to define a line source where Kα and Kα are unresolved. […] The phases for the four-order data were determined by swelling analysis (Moody M F. X-ray diffraction pattern of nerve myelin: A method for determining the phases. Science 1963; 142:1173–117). […]

[2] = Membrane lipid peroxidation analysis (CHOD-Iodide assay) in membrane vesicles; assay type: biochemical
Protocol: In these experiments, oxidation occurred in a gradual, time-dependent manner that was measured spectrophotometrically over a 72 h period.
The separate and combined dose-dependent antioxidant activities of these agents were examined in membranes enriched with PUFA prepared at a 0.5 cholesterol to phospholipid mole ratio (Mason R P, Walter M F, Trumbore M W, Olmstead Jr. E G, Mason P E. Membrane antioxidant effects of the charged dihydropyridine calcium antagonist amlodipine. J. Mol Cell. Cardiol. 1999; 31:275–281). The lipid (dilinoleoyl phosphatidylcholine and cholesterol) used for these samples was dissolved in HPLC-grade chloroform (25.0 mg/ml). […]
Membrane lipid peroxidation was carried out at 37° C. in a shaking water bath without the addition of exogenous stimulants, as previously described in detail (Mason R P, Walter M F, Trumbore M W, Olmstead Jr. E G, Mason P E. Membrane antioxidant effects of the charged dihydropyridine calcium antagonist amlodipine. J. Mol. Cell. Cardiol. 1999; 31:275–281). […] The extent of membrane lipid peroxidation was measured by the CHOD-Iodide assay as previously described in detail (El-Saadani M, Esterbauer H, el-Sayed M, Goher M, Nassar A Y, Jurgens G. A spectrophotometric assay for lipid peroxides in serum lipoproteins using a commercially available reagent. J. Lipid. Res. 1989; 30:627–630). […]

| SMILES | TBARS formation compared to control lipid peroxidation (100%) (human LDL) | effect on membrane dimensions, in words ([1]; includes intrabilayer headgroup separation) | overall membrane bilayer width, including surface hydration [1] | inhibition of lipid peroxidation ([2]; 100.0 nM, membrane preparation enriched with cholesterol) | persistence of antioxidant effect over time ([2]; 10.0 μM, incubation up to 72 h) |
| --- | --- | --- | --- | --- | --- |
| CCOC(=O)C1=C(COCCN)NC(C)=C(C(=O)OC)C1c1ccccc1Cl (stereo not shown) [AML, amlodipine besylate] | 93.3±6% | did not significantly alter membrane dimensions | 54.8 Å |  |  |
| CC(C)c1c(C(=O)Nc2ccccc2O)c(-c2ccccc2)c(-c2ccc(F)cc2)n1CCC(O)CC(O)CC(=O)O (stereo not shown) [ATM, ortho-hydroxy metabolite of atorvastatin] | 65.6±7% |  | 58.0 Å | 9% |  |
| Cc1c(C)c2c(c(C)c1O)CC[C@@](C)(CCC[C@H](C)CCC[C@H](C)CCCC(C)C)O2 [vitamin E, α-tocopherol] |  |  |  |  | could not be reproduced |
